Assay results as given in a compilation of properties of binary mixtures (doi:10.1021/acs.jpcc.8b05573).

Assay: xn = mol fraction of the nth substance listed
Conditions: 100 kPa, x1 = 0.24

SMILES: O=S(=O)([N-]S(=O)(=O)C(F)(F)F)C(F)(F)F.O=S(=O)([N-]S(=O)(=O)C(F)(F)F)C(F)(F)F.[Mg+2] + CCCC[N+]1(C)CCCC1.O=S(=O)([N-]S(=O)(=O)C(F)(F)F)C(F)(F)F
- electrical conductivity (279.2 K): 0.003 S/m
- electrical conductivity (282.4 K): 0.005 S/m
- electrical conductivity (286.1 K): 0.006 S/m
- electrical conductivity (289.5 K): 0.009 S/m
- electrical conductivity (293 K): 0.013 S/m
- electrical conductivity (296.9 K): 0.017 S/m
- electrical conductivity (300.2 K): 0.022 S/m
- electrical conductivity (304.4 K): 0.031 S/m
- electrical conductivity (310.6 K): 0.046 S/m
- electrical conductivity (317.5 K): 0.07 S/m
- electrical conductivity (323.8 K): 0.096 S/m
- electrical conductivity (334.5 K): 0.159 S/m
- electrical conductivity (345.4 K): 0.252 S/m
- electrical conductivity (355.5 K): 0.346 S/m
- electrical conductivity (363.5 K): 0.461 S/m
- electrical conductivity (372.9 K): 0.574 S/m
- electrical conductivity (386 K): 0.786 S/m
- electrical conductivity (400.6 K): 1.08 S/m
- electrical conductivity (417.1 K): 1.44 S/m

SMILES: O=S(=O)([N-]S(=O)(=O)C(F)(F)F)C(F)(F)F.O=S(=O)([N-]S(=O)(=O)C(F)(F)F)C(F)(F)F.[Zn+2] + CCCC[N+]1(C)CCCC1.O=S(=O)([N-]S(=O)(=O)C(F)(F)F)C(F)(F)F
- electrical conductivity (337.3 K): 0.163 S/m
- electrical conductivity (344.9 K): 0.213 S/m
- electrical conductivity (366.8 K): 0.399 S/m
- electrical conductivity (375.2 K): 0.508 S/m
- electrical conductivity (391 K): 0.805 S/m
- electrical conductivity (430.4 K): 1.79 S/m
- electrical conductivity (449.5 K): 2.51 S/m

SMILES: O=S(=O)([N-]S(=O)(=O)C(F)(F)F)C(F)(F)F.[Li+] + CCCC[N+]1(C)CCCC1.O=S(=O)([N-]S(=O)(=O)C(F)(F)F)C(F)(F)F
- electrical conductivity (272.9 K): 0.005 S/m
- electrical conductivity (279.8 K): 0.01 S/m
- electrical conductivity (288.8 K): 0.027 S/m
- electrical conductivity (295.1 K): 0.052 S/m
- electrical conductivity (305.1 K): 0.098 S/m
- electrical conductivity (325.1 K): 0.235 S/m
- electrical conductivity (338.2 K): 0.329 S/m
- electrical conductivity (360.2 K): 0.633 S/m
- electrical conductivity (371.2 K): 0.846 S/m
- electrical conductivity (385.4 K): 1.24 S/m
- electrical conductivity (409.4 K): 1.88 S/m
- electrical conductivity (429.6 K): 2.77 S/m

SMILES: O=S(=O)([N-]S(=O)(=O)C(F)(F)F)C(F)(F)F.[Na+] + CCCC[N+]1(C)CCCC1.O=S(=O)([N-]S(=O)(=O)C(F)(F)F)C(F)(F)F
- electrical conductivity (274.2 K): 0.006 S/m
- electrical conductivity (283.8 K): 0.02 S/m
- electrical conductivity (291.9 K): 0.041 S/m
- electrical conductivity (300.2 K): 0.07 S/m
- electrical conductivity (308.6 K): 0.119 S/m
- electrical conductivity (323.4 K): 0.223 S/m
- electrical conductivity (356.5 K): 0.663 S/m
- electrical conductivity (362.4 K): 0.805 S/m
- electrical conductivity (380.6 K): 1.24 S/m
- electrical conductivity (417.8 K): 2.45 S/m
- electrical conductivity (434.2 K): 3.04 S/m
